{"source": "patent US20080194880A1", "about": "“Process For the Preparation of Polymorphs of Mesotrione” (priority 2004, published 2008)", "type_in_all_cases": "physicochemical", "key": {"[1]": {"experiment": "Conversion of isolated Form 2 mesotrione to Form 1 in water in the presence of xylene at different pH", "settings": "xylene:mesotrione 1:5, 21 °C", "excerpt": "This is an example of the conversion of already isolated Form 2 mesotrione to Form 1 mesotrione in the presence of solvent. A 10% solution of Form 2 in water was made at different pH values ranging from 2 to 6. If seeded, a seed concentration of 2% Form 1 relative to the Form 2 mesotrione concentration was used. A 1:5 ratio of xylene to mesotrione was used in these experiments. Actual conversion time may be less than shown."}, "[2]": {"experiment": "Conversion of in-process Form 2 mesotrione slurry from the crystallizer to Form 1", "settings": "not seeded", "excerpt": "This is an example of converting in process Form 2 mesotrione to Form 1 mesotrione. Form 2 material was made in the plant via a process upset. […]"}, "[3]": {"experiment": "Conversion of isolated Form 2 mesotrione to Form 1 in process filtrate with TEA and NaCl", "settings": "not seeded"}, "[4]": {"experiment": "Conversion of isolated Form 2 mesotrione to Form 1 in process filtrate"}, "[5]": {"experiment": "Polymorphic stability of pure mesotrione in aqueous suspension at pH 1 to 4", "description": "1.6 g of the re-crystallised mesotrione crystals were stirred with water (30 ml) in a reaction flask and the pH increased to 12 by the addition of sodium hydroxide. 1.5 ml of 10% hydrochloric acid was added over 15 minutes to reduce the pH of the solution to pH ranges between 1 and 4. The suspension was stirred and the polymorphic form of the crystals was determined as Form 2 by optical microscopy and FT-IR. Below pH 2.5, Form 2 transformed to Form 1 within 1 hour. At pH 3 Form 2 was stable but converted to Form 1 when seeded with Form 1 over four hours."}, "[6]": {"experiment": "Stabilising Form 2 mesotrione in a 0.05% Rhodasurf DA630 solution", "settings": "pH 5.5, after 10 days", "description": "0.5 g of Form 2 mesotrione crystals were stirred with a 0.05% Rhodasurf DA630 (15 ml) in a reaction flask. A pH probe was placed in the system and the pH was increased to 11.5 by the addition of 0.6 ml of 10% sodium hydroxide solution. The pH of the solution was reduced to 5.5 by the addition of 0.74 g of Form 2 mesotrione. The polymorphic form of the mesotrione was monitored periodically by microscopy and FT-IR."}}}
{"smiles": "CS(=O)(=O)c1ccc(C(=O)C2C(=O)CCCC2=O)c([N+](=O)[O-])c1", "note": "[Form 2 mesotrione, 2-(4-methylsulphonyl-2-nitrobenzoyl)cyclohexane-1,3-dione]", "values": [{"measurement": "Dominant Polymorph Form (IR)", "setting": "[1]; Example 1A: 10% Form 2 in water, 6.3 hr, pH 2.0, seeded 2% Form 1", "result": 1}, {"measurement": "Dominant Polymorph Form (IR)", "setting": "[1]; Example 1B: 10% Form 2 in water, 6.3 hr, pH 2.9, seeded 2% Form 1", "result": 2}, {"measurement": "Dominant Polymorph Form (IR)", "setting": "[1]; Example 1C: 10% Form 2 in water, 6.3 hr, pH 4.1, seeded 2% Form 1", "result": 2}, {"measurement": "Dominant Polymorph Form (IR)", "setting": "[1]; Example 1D: 10% Form 2 in water, 6.3 hr, pH 5.9, seeded 2% Form 1", "result": 2}, {"measurement": "Dominant Polymorph Form (IR)", "setting": "[1]; Example 1E: 10% Form 2 in water, 6.3 hr, pH 2.5, seeded 2% Form 1", "result": 1}, {"measurement": "Dominant Polymorph Form (IR)", "setting": "[1]; Example 1F: 10% Form 2 in water, 6.3 hr, pH 5.1, seeded 2% Form 1", "result": 2}, {"measurement": "Dominant Polymorph Form (IR)", "setting": "[1]; Example 1G: 10% Form 2 in water, 23.3 hr, pH 2.0, seeded 2% Form 1", "result": 1}, {"measurement": "Dominant Polymorph Form (IR)", "setting": "[1]; Example 1H: 10% Form 2 in water, 23.3 hr, pH 2.9, seeded 2% Form 1", "result": 2}, {"measurement": "Dominant Polymorph Form (IR)", "setting": "[1]; Example 1I: 10% Form 2 in water, 23.5 hr, pH 5.9, seeded 2% Form 1", "result": 2}, {"measurement": "Dominant Polymorph Form (IR)", "setting": "[1]; Example 1J: 10% Form 2 in water, 23.5 hr, pH 2.5, seeded 2% Form 1", "result": 1}, {"measurement": "Dominant Polymorph Form (IR)", "setting": "[1]; Example 1K: 10% Form 2 in water, 23.5 hr, pH 2.0, not seeded", "result": 1}, {"measurement": "Dominant Polymorph Form (IR)", "setting": "[1]; Example 1L: 10% Form 2 in water, 22.0 hr, pH 2.0, not seeded", "result": 1}, {"measurement": "Dominant Polymorph Form (IR)", "setting": "[1]; Example 1M: 10% Form 2 in water, 22.0 hr, pH 4.0, not seeded", "result": 2}, {"measurement": "Hours to convert", "setting": "[2]; Example 2A: Form 2 slurry, 20° C., pH 3.2, not agitated, did not convert after 4-5 days", "result": "Did not"}, {"measurement": "Hours to convert", "setting": "[2]; Example 2B: Form 2 slurry, 40° C., pH 2.0, agitated", "result": 4, "unit": "h"}, {"measurement": "Hours to convert", "setting": "[2]; Example 2C: Form 2 slurry, 50° C., pH 2.0, agitated", "result": 1.4, "unit": "h"}, {"measurement": "Hours to convert", "setting": "[2]; Example 2D: Form 2 slurry, 50° C., pH 2.9, agitated", "result": 1.8, "unit": "h"}, {"measurement": "Hours to convert", "setting": "[2]; Example 2E: Form 2 slurry, 40° C., pH 2.0, agitated", "result": 4, "unit": "h"}, {"measurement": "Hours to convert", "setting": "[3]; Example 3A: process filtrate, temp 40, pH 1.8, no meso:TEA or meso:NaCl ratio printed, agitated", "result": 17, "unit": "h"}, {"measurement": "Hours to convert", "setting": "[3]; Example 3B: process filtrate, temp 50, pH 2.0, meso:TEA 1:1.3, meso:NaCl 2:1, agitated", "result": 1, "unit": "h"}, {"measurement": "Hours to convert", "setting": "[3]; Example 3C: process filtrate, temp 50, pH 2.0, meso:TEA 1:1.3, meso:NaCl 2:1, agitated", "result": 5, "unit": "h"}, {"measurement": "Hours to convert", "setting": "[3]; Example 3D: process filtrate, temp 50, pH 1.8, meso:TEA 1:1.3, meso:NaCl 2:1, agitated", "result": 4, "unit": "h"}, {"measurement": "Hours to convert", "setting": "[4]; Example 4A: process filtrate, temp 22, pH 3.6, agitated, seeded, did not convert after 52 hrs", "result": "Did not"}, {"measurement": "Hours to convert", "setting": "[4]; Example 4B: process filtrate, temp 22, pH 3.6, agitated, seeded, did not convert after 48 hrs", "result": "Did not"}, {"measurement": "Hours to convert", "setting": "[4]; Example 4C: process filtrate, temp 30, pH 3.6, agitated, seeded, did not convert after 18 hrs", "result": "Did not"}, {"measurement": "Hours to convert", "setting": "[4]; Example 4D: process filtrate, temp 50, pH 2.0, agitated, not seeded", "result": 2, "unit": "h"}, {"measurement": "Hours to convert", "setting": "[4]; Example 4E: process filtrate, temp 50, pH 1.8, agitated, not seeded", "result": 2, "unit": "h"}, {"measurement": "Hours to convert", "setting": "[4]; Example 4F: process filtrate, temp 50, pH 1.8, not agitated, not seeded", "result": 2, "unit": "h"}, {"measurement": "Transformation of Form 2 to Form 1", "setting": "[5]; aqueous suspension, pH between 3.5 and 4, heated to 40° C., 1% by weight of Form 1 seeds added", "result": "would not transform to Form 1"}, {"measurement": "Polymorphic form of the suspension", "setting": "[5]; pH between 3.5 and 4, determined periodically over the next 3 weeks", "result": "always found to be Form 2"}, {"measurement": "Transformation of Form 2 to Form 1", "setting": "[5]; pH between 3.5 and 4, samples taken several months later", "result": "had not transformed to Form 1"}, {"measurement": "Time for Form 2 to transform to Form 1", "setting": "[5]; stirred aqueous suspension, below pH 2.5", "result": "≤ 1", "unit": "h"}, {"measurement": "Polymorphic stability of Form 2", "setting": "[5]; stirred aqueous suspension, pH 3, not seeded", "result": "stable"}, {"measurement": "Time for Form 2 to convert to Form 1", "setting": "[5]; stirred aqueous suspension, pH 3, seeded with Form 1", "result": "four"}, {"measurement": "Polymorphic form (microscopy and FT-IR)", "setting": "[6]", "result": "still predominately Form 2"}]}
